In publication PMC6720019 (Pharmaceutical Biology, 2019):

Tests used:
Assay type in all cases: in vitro ADME
Settings in all cases: 100 μM KF, pooled HLMs
[1] = molecular target: T1, CYP2D6 (Homo sapiens, UniProt P10635); assay: CYP2D6 inhibition in pooled human liver microsomes (dextromethorphan O-demethylation)
T1 construct: effects of KF on eight major CYP isoforms in human liver microsomes (HLMs); from tissue; host or cells: human liver microsomes
Method: (§1) All incubations were performed in triplicate, and the mean values were utilized. The typical incubation systems contained 100 mM potassium phosphate buffer (pH 7.4), NADPH generating system (1 mM NADP^+, 10 mM glucose-6-phosphate, 1 U/mL of glucose-6-phosphate dehydrogenase, and 4 mM MgCl2), the appropriate concentration of HLM, a corresponding probe substrate and KF (or positive inhibitor for different probe reactions) in a final volume of 200 μL.
(§2) The concentration of KF was 100 μM according literatures (Lang et al. [2016]; Liu et al. [2017]; Zhang et al. [2019]), and the positive inhibitor concentrations were as follows: 10 μM furafylline for CYP1A2, 1 μM ketoconazole for CYP3A4, 10 μM tranylcypromine for CYP2A6, 50 μM clomethiazole for CYP2E1, 10 μM quinidine for CYP2D6, 10 μM sulfaphenazole for CYP2C9, 50 μM tranylcypromine for CYP2C19, 5 μM montelukast for CYP2C8. Probe substrates, positive inhibitors (except for dextromethorphan and quinidine which were dissolved in water) and KF were dissolved in methanol, with a final concentration of 1% (v/v), and 1% neat methanol was added to the incubations without inhibitor. […] The instrument used in this study were Agilent 1260 series instrument with DAD and FLD detector, and the quantitative assay for the corresponding metabolites was performed as previously reported (Lang et al. [2016]; Zhang et al. 2016). […]

[2] = molecular target: T2, CYP2A6 (Homo sapiens, UniProt P11509); assay: CYP2A6 inhibition in pooled human liver microsomes (coumarin 7-hydroxylation)
T2 construct: effects of KF on eight major CYP isoforms in human liver microsomes (HLMs); from tissue; host or cells: human liver microsomes
T2 sequence (P11509 1-494): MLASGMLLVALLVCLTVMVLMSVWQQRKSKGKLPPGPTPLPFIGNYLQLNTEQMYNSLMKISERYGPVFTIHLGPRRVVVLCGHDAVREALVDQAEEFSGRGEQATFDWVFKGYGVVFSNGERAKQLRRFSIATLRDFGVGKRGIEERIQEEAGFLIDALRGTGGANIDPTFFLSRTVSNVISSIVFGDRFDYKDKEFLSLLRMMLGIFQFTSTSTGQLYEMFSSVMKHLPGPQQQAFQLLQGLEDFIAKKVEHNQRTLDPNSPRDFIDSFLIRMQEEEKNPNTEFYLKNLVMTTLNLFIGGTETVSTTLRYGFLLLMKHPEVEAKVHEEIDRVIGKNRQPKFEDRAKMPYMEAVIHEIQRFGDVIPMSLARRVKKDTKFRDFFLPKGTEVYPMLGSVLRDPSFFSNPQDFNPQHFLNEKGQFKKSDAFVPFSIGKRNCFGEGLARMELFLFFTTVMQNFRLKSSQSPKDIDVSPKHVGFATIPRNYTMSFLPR
Method: as §1, §2

[3] = molecular target: T3, CYP2E1 (Homo sapiens, UniProt P05181); assay: CYP2E1 inhibition in pooled human liver microsomes (chlorzoxazone 6-hydroxylation)
T3 construct: effects of KF on eight major CYP isoforms in human liver microsomes (HLMs); from tissue; host or cells: human liver microsomes
T3 sequence (P05181 whole entry, canonical isoform): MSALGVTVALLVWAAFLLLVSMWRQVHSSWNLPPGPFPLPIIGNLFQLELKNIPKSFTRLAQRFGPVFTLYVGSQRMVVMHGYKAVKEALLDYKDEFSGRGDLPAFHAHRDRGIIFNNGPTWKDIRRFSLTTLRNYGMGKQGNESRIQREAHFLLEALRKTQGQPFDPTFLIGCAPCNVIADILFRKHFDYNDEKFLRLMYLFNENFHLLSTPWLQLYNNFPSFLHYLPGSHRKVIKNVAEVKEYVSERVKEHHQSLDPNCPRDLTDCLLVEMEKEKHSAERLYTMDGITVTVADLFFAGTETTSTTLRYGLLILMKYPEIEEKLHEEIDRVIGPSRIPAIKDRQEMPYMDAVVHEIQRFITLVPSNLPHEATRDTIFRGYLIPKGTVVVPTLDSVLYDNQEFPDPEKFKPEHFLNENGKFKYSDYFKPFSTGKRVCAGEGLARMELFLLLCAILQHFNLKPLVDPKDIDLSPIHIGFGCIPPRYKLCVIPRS
Method: as §1, §2

[4] = molecular target: T4, CYP2C19 (Homo sapiens, UniProt P33261); assay: CYP2C19 inhibition in pooled human liver microsomes (S-mephenytoin 4-hydroxylation)
T4 construct: effects of KF on eight major CYP isoforms in human liver microsomes (HLMs); from tissue; host or cells: human liver microsomes
T4 sequence (P33261 whole entry, canonical isoform): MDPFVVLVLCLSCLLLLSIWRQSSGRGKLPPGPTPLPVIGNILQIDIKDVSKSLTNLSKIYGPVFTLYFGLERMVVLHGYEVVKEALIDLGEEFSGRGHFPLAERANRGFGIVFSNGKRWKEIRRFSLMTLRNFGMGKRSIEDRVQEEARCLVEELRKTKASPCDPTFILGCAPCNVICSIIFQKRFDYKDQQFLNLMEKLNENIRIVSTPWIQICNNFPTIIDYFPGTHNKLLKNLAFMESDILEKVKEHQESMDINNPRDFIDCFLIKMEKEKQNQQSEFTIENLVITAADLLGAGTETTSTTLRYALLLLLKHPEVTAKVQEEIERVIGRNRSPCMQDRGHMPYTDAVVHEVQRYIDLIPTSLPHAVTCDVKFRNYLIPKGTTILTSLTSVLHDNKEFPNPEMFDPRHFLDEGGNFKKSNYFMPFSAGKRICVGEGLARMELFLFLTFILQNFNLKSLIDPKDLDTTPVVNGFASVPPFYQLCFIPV
Method: as §1, §2

[5] = molecular target: T5, CYP2C8 (Homo sapiens, UniProt P10632); assay: CYP2C8 inhibition in pooled human liver microsomes (paclitaxel 6α-hydroxylation)
T5 construct: effects of KF on eight major CYP isoforms in human liver microsomes (HLMs); from tissue; host or cells: human liver microsomes
T5 sequence (P10632 1-490): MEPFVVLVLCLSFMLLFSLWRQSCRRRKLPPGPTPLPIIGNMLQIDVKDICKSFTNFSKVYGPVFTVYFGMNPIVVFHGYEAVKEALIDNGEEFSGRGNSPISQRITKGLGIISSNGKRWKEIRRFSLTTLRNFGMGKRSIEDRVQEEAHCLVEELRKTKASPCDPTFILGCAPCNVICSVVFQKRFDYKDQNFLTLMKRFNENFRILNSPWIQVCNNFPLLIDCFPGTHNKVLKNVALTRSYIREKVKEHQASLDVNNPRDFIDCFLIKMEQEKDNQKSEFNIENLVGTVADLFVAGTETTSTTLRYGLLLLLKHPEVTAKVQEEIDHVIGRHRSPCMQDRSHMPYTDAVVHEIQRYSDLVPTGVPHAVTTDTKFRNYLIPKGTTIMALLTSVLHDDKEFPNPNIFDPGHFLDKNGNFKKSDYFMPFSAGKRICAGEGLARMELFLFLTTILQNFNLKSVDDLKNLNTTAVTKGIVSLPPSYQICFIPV
Method: as §1, §2

T1 sequence (P10635 whole entry, canonical isoform): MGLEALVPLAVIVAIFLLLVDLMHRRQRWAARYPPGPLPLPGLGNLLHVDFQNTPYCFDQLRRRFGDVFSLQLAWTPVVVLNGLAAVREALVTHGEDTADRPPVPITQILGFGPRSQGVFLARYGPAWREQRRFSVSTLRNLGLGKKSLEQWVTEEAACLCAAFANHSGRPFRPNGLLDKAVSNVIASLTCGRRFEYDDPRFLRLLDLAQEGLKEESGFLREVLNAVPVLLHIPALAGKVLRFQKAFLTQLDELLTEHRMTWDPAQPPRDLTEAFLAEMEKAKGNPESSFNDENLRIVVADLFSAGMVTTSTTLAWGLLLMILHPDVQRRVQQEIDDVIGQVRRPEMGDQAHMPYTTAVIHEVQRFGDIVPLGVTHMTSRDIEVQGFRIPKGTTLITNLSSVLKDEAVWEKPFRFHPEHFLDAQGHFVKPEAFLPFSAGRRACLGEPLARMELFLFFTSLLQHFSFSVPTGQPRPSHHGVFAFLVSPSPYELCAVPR

C[C@@H]1O[C@@H](Oc2cc(O)c3c(=O)c(O[C@@H]4O[C@@H](C)[C@H](O)[C@@H](O)[C@H]4O)c(-c4ccc(O)cc4)oc3c2)[C@H](O)[C@H](O)[C@H]1O [KF, Kaempferitrin]
did not inhibit: Inhibition of CYP2D6 activity [1] | Inhibition of CYP2A6 activity [2] | Inhibition of CYP2E1 activity [3] | Inhibition of CYP2C19 activity [4] | Inhibition of CYP2C8 activity [5]
